Data as given in patent US4224316A, “Synthetic peptides having pituitary growth hormone releasing activity” (Beckman Instruments, Inc., priority 1979, dated 1980).
Square brackets hold non-standard residues; d marks the D form. Peptide text beside a SMILES is read from it.

System: pituitaries removed from 20 day old female rats
Experiment: In vitro growth hormone release study (incubated rat pituitaries, GH radioimmunoassay of the medium)
Format: cell-based
Conditions: mean ± SEM, two pituitaries in 1 ml lactated Ringer's solution, 36° C., peptide added hourly for 2 hours
Description: Female rats of the CD-l strain were housed in a constant temperature room at 24° C. with 14 hours light and 10 hours darkness. The rats were fed Purina brand rat chow ab libitum.
All studies were started between 0800 and 1000 hours.
Pituitaries were removed from 20 day old female rats. Two pituitaries were incubated at 36° C. in 1 ml of lactated Ringer's solution in 10 ml polytetrafluoroethylene beakers in a Dubnoff Shaker (90 cycles/min.). The pituitaries were incubated a total of 4 hours (P1, P2, I3, and I4). After two successive one hour preincubation periods (P1, P2), the peptide was added to the incubation medium hourly for 2 hours (I3, I4).
This in vitro study was performed in triplicate and a standard radioimmunoassay of growth hormone present in the incubation medium was performed in duplicate. The hormonal activity was calculated as the difference (Δ) of growth hormone (GH) levels between I3, I4 and P2, i.e., (I3 -P2) and (I4 -P2). P values were calculated by Students' t test using six growth hormone values for each value recorded.
The growth hormone radioimmunoassay reagents were distributed by the National Institute of Arthritis and […] (NIAMDD) program. The growth hormone values were calculated in terms of nanograms (ng) of a rat standard with a growth hormone potency of 0.61 units/mg.

Row | SMILES | In vitro growth hormone release (ΔGH between I3, I4 and P2) (10μg peptide) | In vitro growth hormone release (ΔGH between I3, I4 and P2) (100μg peptide) | In vitro growth hormone release (ΔGH between I3, I4 and P2) (1μg peptide)
1 | CSCC[C@H](NC(=O)[C@H](Cc1ccccc1)NC(=O)[C@@H](Cc1ccccc1)NC(=O)[C@H](Cc1c[nH]c2ccccc12)NC(=O)[C@H](N)Cc1ccccc1)C(N)=O [H2 N-D-Phe-Trp-D-Phe-Phe-Met-CONH2] (H-[dF]W[dF]FM-NH2) | 1469 ± 153 ng.increment.GH/ml incubation | 1483 ± 168 ng.increment.GH/ml incubation | –
2 | CSCC[C@H](NC(=O)[C@H](Cc1ccccc1)NC(=O)[C@@H](Cc1c[nH]c2ccccc12)NC(=O)[C@H](Cc1ccccc1)NC(=O)[C@H](N)Cc1ccccc1)C(N)=O [H2 N-D-Phe-Phe-D-Trp-Phe-Met-CONH2] (H-[dF]F[dW]FM-NH2) | 955 ± 248 ng.increment.GH/ml incubation | 1060 ± 469 ng.increment.GH/ml incubation | 130 ± 143 ng.increment.GH/ml incubation
3 | NCCCC[C@H](NC(=O)[C@H](Cc1ccccc1)NC(=O)[C@@H](Cc1ccccc1)NC(=O)[C@H](Cc1c[nH]c2ccccc12)NC(=O)[C@H](N)Cc1ccccc1)C(N)=O [H2 N-D-Phe-Trp-D-Phe-Phe-Lys-CONH2] (H-[dF]W[dF]FK-NH2) | 888 ± 120 ng.increment.GH/ml incubation | 963 ± 96 ng.increment.GH/ml incubation | -109 ± 101 ng.increment.GH/ml incubation
